Experimental findings from PubChem BioAssay AID328 (DTP/NCI, 2004) are described below.

The structures appear in SMILES notation. “And” between values parts separate entries of the source, which are not always exact repeats. Equal values may be shown once. Toxic doses and inconclusive results are not listed. Non-standard residues stand in square brackets, D forms with d. Residues, ends and D or L forms follow the SMILES beside them. ξ: configuration not given here. ξK = NCCCCC(N)C(=O)O

The test deals with BDF1 mice, P388 leukemia ip, median survival T/C. Nature of the test: NCI In Vivo Anticancer Drug Screen. Data for tumor model P388 Leukemia (intraperitoneal) in B6D2F1 (BDF1) mice. Particulars: endpoint: median survival time, higher = longer survival. In short, it runs like this: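 Each value expresses how treatment altered survival: treated-mouse outcome over vehicle-mouse outcome, both groups bearing the transplanted tumour.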

Where [1] appears, read: dose: 25.0 mg/kg/injection, schedule: Q01DX009 (ip), vehicle: saline.
[2] abbreviates: dose: 100.0 mg/kg/injection, schedule: Q01DX001 (ip), vehicle: Klucel (hydroxypropylcellulose) (HPC).
The mark [3] stands for this setting: dose: 200.0 mg/kg/injection, schedule: Q01DX001 (ip), vehicle: Klucel (hydroxypropylcellulose) (HPC).
[4] abbreviates: dose: 400.0 mg/kg/injection, schedule: Q01DX001 (ip), vehicle: Klucel (hydroxypropylcellulose) (HPC).
The mark [5] stands for this setting: dose: 100.0 mg/kg/injection, schedule: Q04DX003 (ip), vehicle: saline with Tween-80.

For `Cc1ccc(S(=O)(=O)N/N=C/C(O)C(O)C(O)CO)cc1` (centres undefined), the T/C is, setting by setting: (dose: 100.0 mg/kg/injection, schedule: Q01DX001 (ip), vehicle: saline) 110 % of control; (dose: 200.0 mg/kg/injection, schedule: Q01DX001 (ip), vehicle: saline) 105 % of control; (dose: 400.0 mg/kg/injection, schedule: Q01DX001 (ip), vehicle: saline) 120 % of control.
Turning to `c1ccc(CCN2CCC(CCc3c[nH]c4ccccc34)CC2)cc1`, the T/C was 100 % of control (dose: 12.5 mg/kg/injection, schedule: Q01DX010 (ip), vehicle: saline); 109 % of control (dose: 25.0 mg/kg/injection, schedule: Q01DX010 (ip), vehicle: saline); 122 % of control (dose: 50.0 mg/kg/injection, schedule: Q01DX010 (ip), vehicle: saline); 114 % of control (dose: 100.0 mg/kg/injection, schedule: Q01DX010 (ip), vehicle: saline).
With `S=c1cc(-c2ccc(Cl)cc2)ss1`, the T/C reads like this: under setting [1], 123 % of control; (dose: 50.0 mg/kg/injection, schedule: Q01DX009 (ip), vehicle: saline) 101 % of control; (dose: 100.0 mg/kg/injection, schedule: Q01DX009 (ip), vehicle: saline) 107 % of control; (dose: 100.0 mg/kg/injection, schedule: Q04DX003 (ip), vehicle: saline) 107 % of control; (dose: 200.0 mg/kg/injection, schedule: Q01DX009 (ip), vehicle: saline) 107 % of control; (dose: 200.0 mg/kg/injection, schedule: Q04DX003 (ip), vehicle: saline) 110 % of control. Further, the T/C is, setting by setting: (dose: 400.0 mg/kg/injection, schedule: Q01DX009 (ip), vehicle: saline) 123 % of control; (dose: 400.0 mg/kg/injection, schedule: Q04DX003 (ip), vehicle: saline) 100 % of control.
On to `CSC(=S)NNC(=O)c1cccc([N+](=O)[O-])c1`, for which the T/C by setting is: (dose: 6.25 mg/kg/injection, schedule: Q04DX003 (ip), vehicle: saline sonified) 110 % of control; (dose: 12.5 mg/kg/injection, schedule: Q04DX003 (ip), vehicle: saline sonified) 105 % of control; (dose: 25.0 mg/kg/injection, schedule: Q04DX003 (ip), vehicle: saline sonified) 100 % of control.
Take `CN1CCC2=C(C1)C(c1ccccc1)c1ccccc12` (centres undefined): under setting [1], the T/C is 106 % of control.
With `Cn1cnc(C(N)=S)c1N`, the T/C is, setting by setting: (dose: 75.0 mg/kg/injection, schedule: Q04DX003 (ip), vehicle: saline) 112 % of control; under setting [2], 100 % of control; (dose: 150.0 mg/kg/injection, schedule: Q04DX003 (ip), vehicle: saline) 100 % of control; under setting [3], 95 % of control; (dose: 300.0 mg/kg/injection, schedule: Q04DX003 (ip), vehicle: saline) 112 % of control; under setting [4], 100 % of control.
`CCC(C)(O)C#CC#CC(C)(O)CC` (centres undefined): the T/C is 100 % of control (dose: 12.5 mg/kg/injection, schedule: Q01DX009 (ip), vehicle: Klucel (hydroxypropylcellulose) (HPC)); 100 % of control (dose: 12.5 mg/kg/injection, schedule: Q04DX003 (ip), vehicle: Klucel (hydroxypropylcellulose) (HPC)); 100 % of control (dose: 25.0 mg/kg/injection, schedule: Q01DX009 (ip), vehicle: Klucel (hydroxypropylcellulose) (HPC)); 90 % of control (dose: 25.0 mg/kg/injection, schedule: Q04DX003 (ip), vehicle: Klucel (hydroxypropylcellulose) (HPC)); 113 % of control (dose: 50.0 mg/kg/injection, schedule: Q01DX009 (ip), vehicle: Klucel (hydroxypropylcellulose) (HPC)); 95 % of control (dose: 50.0 mg/kg/injection, schedule: Q04DX003 (ip), vehicle: Klucel (hydroxypropylcellulose) (HPC)).
Regarding `CC(=O)C(=O)C(C)=O`, the T/C under setting [2] was 105 % of control, the T/C under setting [3] is 100 % of control and the T/C under setting [4] is 105 % of control.
Regarding `NCCCCC(N)C(=O)NCC(=O)O` (centres undefined) (H-[ξK]-Gly-OH), the T/C (dose: 50.0 mg/kg/injection, schedule: Q01DX005 (ip), vehicle: saline) is 95 % of control; the T/C (dose: 100.0 mg/kg/injection, schedule: Q01DX005 (ip), vehicle: saline) is 102 % of control; the T/C (dose: 200.0 mg/kg/injection, schedule: Q01DX005 (ip), vehicle: saline) was 88 % of control.
Regarding `CCOC(=O)Nc1ccc(/C=C\c2ccnc3ccccc23)cc1`, the T/C runs as follows: (dose: 12.5 mg/kg/injection, schedule: Q01DX009 (ip), vehicle: saline with Tween-80) 106 % of control; (dose: 25.0 mg/kg/injection, schedule: Q01DX009 (ip), vehicle: saline with Tween-80) 115 % of control; (dose: 50.0 mg/kg/injection, schedule: Q01DX009 (ip), vehicle: saline with Tween-80) 92 % of control and 94 % of control.
Take `CCOc1cc(/C=N\Nc2nncn2N)ccc1N(CCCl)CCCl`: the T/C by setting is: (dose: 0.8 mg/kg/injection, schedule: Q04DX003 (ip), vehicle: saline with Tween-80) 113 % of control; (dose: 3.0 mg/kg/injection, schedule: Q04DX003 (ip), vehicle: saline with Tween-80) 154 % of control; (dose: 5.0 mg/kg/injection, schedule: Q04DX003 (ip), vehicle: saline with Tween-80) 169 % of control; (dose: 8.0 mg/kg/injection, schedule: Q04DX003 (ip), vehicle: saline with Tween-80) 165 % of control; (dose: 10.0 mg/kg/injection, schedule: Q04DX003 (ip), vehicle: saline with Tween-80) 210 % of control; (dose: 12.0 mg/kg/injection, schedule: Q04DX003 (ip), vehicle: saline with Tween-80) 203 % of control. For the same compound, the T/C (dose: 18.0 mg/kg/injection, schedule: Q04DX003 (ip), vehicle: saline with Tween-80) is 278 % of control and 154 % of control; the T/C (dose: 20.0 mg/kg/injection, schedule: Q04DX003 (ip), vehicle: saline with Tween-80) is 275 % of control; the T/C (dose: 26.0 mg/kg/injection, schedule: Q04DX003 (ip), vehicle: saline with Tween-80) was 300 % of control and 163 % of control; the T/C (dose: 40.0 mg/kg/injection, schedule: Q04DX003 (ip), vehicle: saline with Tween-80) was 300 % of control and 105 % of control and 213 % of control.
`CC(=O)CC1c2c(ccc3c2OCO3)-c2ccc3cc4c(cc3c2N1C)OCO4` (centres undefined): the T/C is 95 % of control (dose: 5.0 mg/kg/injection, schedule: Q01DX009 (ip), vehicle: Klucel (hydroxypropylcellulose) (HPC)); 110 % of control (dose: 10.0 mg/kg/injection, schedule: Q01DX009 (ip), vehicle: Klucel (hydroxypropylcellulose) (HPC)); 100 % of control (dose: 13.0 mg/kg/injection, schedule: Q01DX010 (ip), vehicle: saline); 120 % of control (dose: 20.0 mg/kg/injection, schedule: Q01DX009 (ip), vehicle: Klucel (hydroxypropylcellulose) (HPC)); 105 % of control (dose: 20.0 mg/kg/injection, schedule: Q01DX010 (ip), vehicle: saline); 110 % of control (dose: 30.0 mg/kg/injection, schedule: Q01DX010 (ip), vehicle: saline). Under “dose: 40.0 mg/kg/injection, schedule: Q01DX009 (ip), vehicle: Klucel (hydroxypropylcellulose) (HPC)”, the T/C is 115 % of control.
On to `N=Nc1c2ccccc2c2nc3c(N)[nH]nc(N)c3nc12`, for which the T/C by setting is: under setting [5], 97 % of control; (dose: 400.0 mg/kg/injection, schedule: Q04DX003 (ip), vehicle: saline with Tween-80) 95 % of control.
Regarding `CC[N+](CC)(CC)CCCNC1=CC(=O)C(NCCC[N+](CC)(CC)CC)=CC1=O`, the T/C was 99 % of control (dose: 0.39 mg/kg/injection, schedule: Q04DX003 (ip), vehicle: saline) and 99 % of control (dose: 0.78 mg/kg/injection, schedule: Q04DX003 (ip), vehicle: saline).
With `CCOC(=O)C1(C)CCCC1=O` (centres undefined), the T/C (dose: 12.5 mg/kg/injection, schedule: Q04DX003 (ip), vehicle: saline) is 100 % of control; the T/C (dose: 25.0 mg/kg/injection, schedule: Q04DX003 (ip), vehicle: saline) was 95 % of control; the T/C (dose: 50.0 mg/kg/injection, schedule: Q04DX003 (ip), vehicle: saline) was 90 % of control.
Turning to `c1cc2cccc3c2c(c1)c1sc2c4cccc5cccc(c54)c2c31`, the T/C is, setting by setting: under setting [5], 91 % of control; (dose: 200.0 mg/kg/injection, schedule: Q04DX003 (ip), vehicle: saline with Tween-80) 100 % of control.
Take `O=[N+]([O-])c1ccc(S(=O)(=O)OCc2cccc(OS(=O)(=O)c3ccc([N+](=O)[O-])cc3)c2)cc1`: the T/C by setting is: (dose: 100.0 mg/kg/injection, schedule: Q04DX003 (ip), vehicle: saline sonified) 105 % of control; (dose: 200.0 mg/kg/injection, schedule: Q04DX003 (ip), vehicle: saline sonified) 116 % of control; (dose: 400.0 mg/kg/injection, schedule: Q04DX003 (ip), vehicle: saline sonified) 105 % of control.
